In US8772495B2, “5-lipoxygenase-activating protein inhibitor” (Panmira Pharmaceuticals, LLC, priority 2008, dated 2014):
Values joined by “and” are separate entries in the source; they are usually repeats but may differ in a detail not shown here. Identical values can stand only once. Like-named read-outs stand apart in the source and are kept apart here. Marks after values point to notes of the source that are not given here.

Assays:
[1] = system: LTB4 in Washed Human Leukocytes; assay: Inhibition of LTB4 in washed human leukocytes; type: cell-based; details: individual tests 1-4
[2] = system: LTB4 in Human Whole Blood; assay: Human blood LTB4 inhibition assay; type: cell-based; details: individual tests 1-8
Description: A non-limiting example of such a human blood LTB4 inhibition assay is as follows: Blood was drawn from consenting human volunteers into heparinized tubes and 125 μL aliquots added to wells containing 2.5 μL 50% dimethylsulfoxide (vehicle) or 2.5 μL drug in 50% dimethylsulfoxide. Samples were incubated for 15 minutes at 37° C. 2 μL calcium ionophore A23817 (from a 50 mM dimethylsulfoxide stock diluted just prior to the assay in Hanks balanced salt solution (Invitrogen)) to 1.25 mM) was added, solutions mixed and incubated for 30 minutes at 37° C. Samples were centrifuged at 1,000 rpm (˜200×g) for 10 minutes at 4° C., plasma removed and a 1:100 dilution assayed for LTB4 concentration using ELISA (Assay Designs). Drug concentrations to achieve 50% inhibition (IC50's) of vehicle LTB4 were determined by nonlinear regression (Graphpad Prism) of % inhibition versus log drug concentration.

[3] = system: LTB4 in Rat Whole Blood; assay: Rat whole blood LTB4 inhibition assay; type: cell-based; details: individual tests 1-5
[4] = biological target: CYP3A4 (Homo sapiens (Human), UniProt P08684); assay: Extracellular cytochrome P450 inhibition (microsomes); type: in vitro ADME; details: concentrations up to and exceeding 40 μM
CYP3A4, sequence (P08684 whole entry, looked up): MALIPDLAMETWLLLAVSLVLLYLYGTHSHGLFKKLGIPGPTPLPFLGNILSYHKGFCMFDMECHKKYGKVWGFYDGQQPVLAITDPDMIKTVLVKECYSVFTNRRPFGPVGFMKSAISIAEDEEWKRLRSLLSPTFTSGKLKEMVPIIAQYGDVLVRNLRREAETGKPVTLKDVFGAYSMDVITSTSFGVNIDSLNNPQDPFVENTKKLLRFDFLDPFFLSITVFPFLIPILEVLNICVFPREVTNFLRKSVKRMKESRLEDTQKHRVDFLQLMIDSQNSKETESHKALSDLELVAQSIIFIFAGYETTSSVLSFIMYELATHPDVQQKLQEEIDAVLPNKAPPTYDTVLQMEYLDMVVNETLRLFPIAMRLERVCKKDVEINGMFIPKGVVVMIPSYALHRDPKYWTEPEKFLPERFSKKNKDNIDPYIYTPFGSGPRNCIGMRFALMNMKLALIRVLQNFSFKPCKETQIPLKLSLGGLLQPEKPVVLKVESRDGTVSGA
Description: (§2) Aliquots of this mixture (89 μL) were delivered to each well of a 96-well polypropylene plate which contained an aliquot of inhibitor (1 μL). Final solvent concentrations were 1% (v/v) or less. Incubations were commenced with the addition of 10 μL β-NADPH (10 mM stock) to a final volume of 100 μL. […] Samples were centrifuged, and supernatant was transferred for LC-MS analysis.

[5] = biological target: T1, CYP2C9 (Homo sapiens (Human), UniProt P11712); assay: as above; type: in vitro ADME; details: concentrations up to and exceeding 40 μM
T1 sequence (P11712 whole entry, looked up): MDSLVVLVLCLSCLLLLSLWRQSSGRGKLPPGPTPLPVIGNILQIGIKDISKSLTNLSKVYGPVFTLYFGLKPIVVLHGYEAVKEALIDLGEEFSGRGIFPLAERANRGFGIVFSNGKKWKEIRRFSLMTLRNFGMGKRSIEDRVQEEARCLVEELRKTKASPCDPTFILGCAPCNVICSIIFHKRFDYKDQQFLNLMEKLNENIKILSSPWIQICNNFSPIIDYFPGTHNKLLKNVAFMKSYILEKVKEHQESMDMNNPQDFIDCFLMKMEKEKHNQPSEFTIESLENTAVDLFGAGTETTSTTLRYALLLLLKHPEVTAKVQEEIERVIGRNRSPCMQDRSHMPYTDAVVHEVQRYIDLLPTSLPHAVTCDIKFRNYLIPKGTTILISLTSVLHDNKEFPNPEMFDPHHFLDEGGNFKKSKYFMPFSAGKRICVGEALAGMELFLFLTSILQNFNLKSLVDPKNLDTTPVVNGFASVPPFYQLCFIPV

[6] = biological target: CYP2C19 (Homo sapiens (Human), UniProt P33261); assay: as above; type: in vitro ADME; details: concentrations up to and exceeding 40 μM
CYP2C19, sequence (P33261 whole entry): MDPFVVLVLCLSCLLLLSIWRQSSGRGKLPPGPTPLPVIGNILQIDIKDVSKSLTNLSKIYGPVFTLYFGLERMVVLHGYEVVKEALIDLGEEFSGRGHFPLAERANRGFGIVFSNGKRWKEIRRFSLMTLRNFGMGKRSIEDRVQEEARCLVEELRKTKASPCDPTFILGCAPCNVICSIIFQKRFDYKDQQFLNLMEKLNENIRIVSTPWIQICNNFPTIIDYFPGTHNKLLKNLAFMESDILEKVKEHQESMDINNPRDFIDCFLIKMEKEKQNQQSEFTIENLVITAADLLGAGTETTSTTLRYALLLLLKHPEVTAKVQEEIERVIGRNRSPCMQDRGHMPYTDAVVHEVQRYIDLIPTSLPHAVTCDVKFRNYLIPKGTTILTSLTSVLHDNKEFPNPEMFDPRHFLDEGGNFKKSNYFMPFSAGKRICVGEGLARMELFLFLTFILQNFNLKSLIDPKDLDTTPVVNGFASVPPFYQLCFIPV
Text: Final solvent concentrations were 1% (v/v) or less.

[7] = biological target: CYP2D6 (Homo sapiens (Human), UniProt P10635); assay: as above; type: in vitro ADME; details: concentrations up to and exceeding 40 μM
CYP2D6, sequence (P10635 whole entry): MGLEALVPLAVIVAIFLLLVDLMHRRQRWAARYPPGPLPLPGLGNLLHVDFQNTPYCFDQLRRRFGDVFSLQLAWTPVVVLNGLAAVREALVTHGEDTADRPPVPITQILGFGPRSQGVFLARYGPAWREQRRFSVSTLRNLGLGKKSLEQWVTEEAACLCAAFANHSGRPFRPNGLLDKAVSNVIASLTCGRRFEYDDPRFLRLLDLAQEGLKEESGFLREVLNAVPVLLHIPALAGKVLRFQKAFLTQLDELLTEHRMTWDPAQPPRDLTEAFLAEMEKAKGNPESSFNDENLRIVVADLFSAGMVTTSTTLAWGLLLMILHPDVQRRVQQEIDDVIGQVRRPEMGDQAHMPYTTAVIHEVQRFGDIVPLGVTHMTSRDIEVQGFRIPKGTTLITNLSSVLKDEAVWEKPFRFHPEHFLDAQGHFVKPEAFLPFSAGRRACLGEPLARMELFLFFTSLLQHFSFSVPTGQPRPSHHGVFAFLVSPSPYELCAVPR
Description: as §2

[8] = Plasma binding (equilibrium dialysis); type: in vitro ADME; details: read-out: % Bound (converted)
Description: (§1) Experiments were performed using equilibrium dialysis.

[9] = Plasma binding (equilibrium dialysis); type: in vitro ADME, Monkey (cynomologus); details: monkey plasma, read-out: % Bound (converted)
Description: as §1

[10] = Liquid formulations for oral solutions/suspensions; type: physicochemical
Description: Values of pH reported were estimated based on pH indicating strips. […] Accordingly, provided in certain embodiments herein were formulations having a pH above about 9, above about 10 or of about 10. In certain embodiments, the formulation was buffered at a pH of about 10. All formulations prepared were sonicated for about 10 minutes.

[11] = Oral administration of liquid formulations to rats; design: species or system male Spargue-Dawley rats; details: Sprague-Dawley, rat, in vivo, solutions of Table 19, male rats
[12] = system: whole blood ionophore-stimulated leukotriene LTB4; assay: Phase I study: ex vivo ionophore-stimulated LTB4; type: in vivo, human
Text: Study Design: Single center, double-blind, randomized, placebo-controlled, single ascending dose followed by multiple ascending dose study.
Sample Size: (1) Single Dose Phase: eight (8) subjects (6 active, 2 placebo) per dose level; up to 5 dose levels are planned (a total of 40 subjects if all 5 dose levels are completed); and (2) Multiple Dose Phase: eight (8) subjects (6 active, 2 placebo) per dose level; up to 4 dose levels are planned (a total of 32 subjects if all 4 dose levels are completed).
Formulations: Compound 2 was supplied as an oral powder for reconstitution. Placebo solution matched. […] The placebo differed only in the absence of the active.
The following dosing cohorts were used:
Routes of Administration: All doses were administered orally with approximately 100 mL of water rinse. Subjects were fasted for at least 8 hours prior to dosing and for 2 hours after dosing. For BID dosing in the Multiple Dose Phase, when applicable, subjects were fasted for at least 2 hours prior to the second daily dose.
Plasma concentrations of Compound 1 were determined using a validated LC/MS method. Whole blood ionophore-stimulated leukotriene LTB4 and urinary LTE4 production were assayed by ELISA and mass spectrometry, respectively.
Analysis of Samples: Concentrations of Compound 1 was determined in plasma samples collected from subjects. Similarly, concentrations of LTB4 in plasma and urinary LTE4 were determined in blood and urine samples collected.

[13] = biological target: human FLAP (Homo sapiens (Human), UniProt P20292); assay: FLAP binding assay (membrane radioligand binding); details: read-out: IC50, inhibition of FLAP radioligand binding; individual tests 1-8
human FLAP, sequence (P20292 whole entry): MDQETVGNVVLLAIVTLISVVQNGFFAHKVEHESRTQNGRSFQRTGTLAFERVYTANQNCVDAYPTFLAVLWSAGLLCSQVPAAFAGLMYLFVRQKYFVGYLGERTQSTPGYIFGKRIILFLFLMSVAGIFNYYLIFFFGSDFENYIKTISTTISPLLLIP
Description: 100 μL ice-cold washed buffer was added to the incubation mixture. Plates were then filtered and washed 3× with 200 μL ice cold Tris-Tween buffer, scintillation bottoms sealed, 100 μL scintillant added, shaken for 15 minutes then counted in a TopCount. Specific binding was determined as defined as total radioactive binding minus non-specific binding in the presence of 10 μM 3-[5-(pyrid-2-ylmethoxy)-3-tert-butylthio-1-benzyl-indol-2-yl]-2,2-dimethylpropionic acid. IC50 values were determined using Graphpad prism analysis of drug titration curves.

[14] = biological target: T1, CYP2C9; assay: Cellular cytochrome P450 induction in cryopreserved human hepatocytes; details: tested at 10 μM, diclofenac substrate

For `CCOc1ccc(-c2ccc(Cn3c(CC(C)(C)C(=O)[O-])c(SC(C)(C)C)c4cc(OCc5ccc(C)cn5)ccc43)cc2)cn1.[Na+]` [Compound 2, sodium 3-[3-(tert-butylsulfanyl)-1-[4-(6-ethoxy-pyridin-3-yl)benzyl]-5-(5-methyl-pyridin-2-yl-methoxy)-1H-indol-2-yl]-2,2-dimethylpropionate], the IC50 [1] was 0.49 nM and 0.87 nM and 0.22 nM and 0.17 nM, the IC90 [1] was 0.77 nM and 1.03 nM and 0.46 nM and 0.41 nM and the IC50 [2] was 552 nM and 645 nM and 563 nM and 410 nM and 642 nM and 482 nM and 310 nM and 444 nM. The IC90 [2] was 3440 nM and 1220 nM and 1550 nM and 810 nM and 1050 nM and 790 nM and 360 nM and 1240 nM, the IC50 [3] was 302 nM and 160 nM and 380 nM and 212 nM and 141 nM and the apparent inhibition [4] was “No apparent inhibition”. The apparent inhibition [5] was “No apparent inhibition”, the apparent inhibition [6] was “No apparent inhibition” and the apparent inhibition [7] was “No apparent inhibition”. For the same molecule, the fraction unbound at 10 μM ([8]; human plasma) was 0.005, the fraction unbound at 10 μM ([8]; mixed breeds, dog plasma) was 0.003 and the fraction unbound at 10 μM ([8]; mixed breeds, rat plasma) was 0.002. For the same molecule, the fraction unbound at 10 μM [9] was 0.003, the “Results (appearance of formulation)” value ([10]; 0.010 M sodium carbonate buffer, 1% v/v Lutrol and 0.05% splenda, pH 10, ~10 mg/mL) was “Clear solution” and the “Results (appearance of formulation)” value ([10]; 0.010 M sodium carbonate buffer, 2% v/v ethanol and 0.05% splenda, pH 10, 10 mg/mL) was “Clear solution”. For the same molecule, the “Results (appearance of formulation)” value ([10]; 0.010 M sodium carbonate buffer, 5% v/v Ethanol and 0.05% splenda, pH 10, ~10 mg/mL) was “Some undissolved solid”, the “Results (appearance of formulation)” value ([10]; 0.010 M sodium carbonate buffer, 5% v/v Simple syrup, pH 10, 10 mg/mL) was “Some undissolved solid” and the “Results (appearance of formulation)” value ([10]; 0.010 M sodium carbonate buffer, pH 10, 10 mg/mL) was “Clear solution”. The “Results (appearance of formulation)” value ([10]; 0.5% Methylcellulose, 3.33 mg/mL) was “Suspension”, the Tmax [11] was at most 2 h and the “tE>50% (time above 50% LTB4 inhibition)” value ([12]; multiple dose 10 mg, Day 1) was 17.5 h. For the same molecule, the “tE>90% (time above 90% LTB4 inhibition)” value ([12]; multiple dose 10 mg, Day 1) was 0.0 h, the “tE>50% (time above 50% LTB4 inhibition)” value ([12]; multiple dose 10 mg, Day 11) was 27.4 h and the “tE>90% (time above 90% LTB4 inhibition)” value ([12]; multiple dose 10 mg, Day 11) was 0.0 h. For the same molecule, the “tE>50% (time above 50% LTB4 inhibition)” value ([12]; multiple dose 50 mg, Day 1) was over 23.3 h, the “tE>90% (time above 90% LTB4 inhibition)” value ([12]; multiple dose 50 mg, Day 1) was 0.0 h and the “tE>50% (time above 50% LTB4 inhibition)” value ([12]; multiple dose 50 mg, Day 11) was 42.4 h. For the same molecule, the “tE>90% (time above 90% LTB4 inhibition)” value ([12]; multiple dose 50 mg, Day 11) was 10.0 h, the “tE>50% (time above 50% LTB4 inhibition)” value ([12]; multiple dose 150 mg, Day 1) was over 23.4 h and the “tE>90% (time above 90% LTB4 inhibition)” value ([12]; multiple dose 150 mg, Day 1) was 15.1 h. The “tE>50% (time above 50% LTB4 inhibition)” value ([12]; multiple dose 150 mg, Day 11) was over 72.0 h, the “tE>90% (time above 90% LTB4 inhibition)” value ([12]; multiple dose 150 mg, Day 11) was 52.4 h and the “tE>50% (time above 50% LTB4 inhibition)” value ([12]; multiple dose 450 mg, Day 1) was over 23.7 h. For the same molecule, the “tE>90% (time above 90% LTB4 inhibition)” value ([12]; multiple dose 450 mg, Day 1) was 17.4 h, the “tE>50% (time above 50% LTB4 inhibition)” value ([12]; multiple dose 450 mg, Day 11) was over 72.0 h and the “tE>90% (time above 90% LTB4 inhibition)” value ([12]; multiple dose 450 mg, Day 11) was 50.4 h. The “LTB4 level at t = 24 hrs.” value ([12]; single dose 50 mg) was 37 ± 4.7 % of baseline, the “tE>50% (time above 50% LTB4 inhibition)” value ([12]; single dose 50 mg, Day 1) was 32.2 h and the “tE>90% (time above 90% LTB4 inhibition)” value ([12]; single dose 50 mg, Day 1) was 0.0 h. The “LTB4 level at t = 24 hrs.” value ([12]; single dose 150 mg) was 24 ± 4.4 % of baseline, the “tE>50% (time above 50% LTB4 inhibition)” value ([12]; single dose 150 mg, Day 1) was 41.9 h and the “tE>90% (time above 90% LTB4 inhibition)” value ([12]; single dose 150 mg, Day 1) was 14.2 h. The “LTB4 level at t = 24 hrs.” value ([12]; single dose 300 mg) was 23 ± 8.3 % of baseline, the “tE>90% (time above 90% LTB4 inhibition)” value ([12]; single dose 300 mg, Day 1) was 16.1 h and the “tE>50% (time above 50% LTB4 inhibition)” value ([12]; single dose 300 mg, Day 1, estimated) was 30^# h. For the same molecule, the “LTB4 level at t = 24 hrs.” value ([12]; single dose 600 mg) was 1.6 ± 0.98 % of baseline, the “tE>50% (time above 50% LTB4 inhibition)” value ([12]; single dose 600 mg, Day 1) was over 71.7 h and the “tE>90% (time above 90% LTB4 inhibition)” value ([12]; single dose 600 mg, Day 1) was 67.2 h. For the same molecule, the “LTB4 level at t = 24 hrs.” value ([12]; single dose 1000 mg) was 1.9 ± 0.41 % of baseline, the “tE>50% (time above 50% LTB4 inhibition)” value ([12]; single dose 1000 mg, Day 1) was over 71.7 h and the “tE>90% (time above 90% LTB4 inhibition)” value ([12]; single dose 1000 mg, Day 1) was 42.6 h. For the same molecule, the IC50 [13] was 2.8 nM and 2.2 nM and the CYP2C9 induction [14] was “No apparent induction”.
